Patent US7582638B2, “Pyrazole-isoquinoline urea derivatives as p38 kinase inhibitors” (Eli Lilly and Company, priority 2005, dated 2009)
Counter-ions that a name gives are not always drawn.

tested on: pMAPKAPK2; test: Inhibition of p-MAPKAPK2 in vitro (anisomycin-stimulated RAW 264.7 cells, ELISA); type: cell-based, murine; conditions: Mus musculus, RAW264.7, p-MAPKAPK2 in vitro, read-out: IC50
Experimental: RAW 264.7 cells (a murine monocytic/macrophage line ATCC) are seeded at a density of 50,000 cells/well in 96-well plates with RPMI-1640 medium plus 10% fetal bovine serum (FBS) and allowed to settle and adhere to the bottom of the well for 48 hours. After reaching confluence, cells are treated for 2 hours with 10 serial dilutions of different compounds. A control compound is always included. After 2 hours, anisomicin (100 ug/ml) is added and cells are incubated for 30 minutes at 37° C. under a 5% CO2 atmosphere. Then, cells are fixed and treated with hydrogen peroxide in order to remove endogenous peroxidase. Finally, plates are blocked with FBS, washed, and an ELISA assay is carried out by using an antiphospho-MAPKAPK2 (Thr 334, Cell Signalling, Cat # 3041) antibody and ahP-Conjugated Secondary Antibody. This reaction is detected by using FEMTO (Pierce) which is an enhanced chemiluminiscent substrate ahP that results in rapid kinetic light output and high signal intensity. The compound exemplified in Example 12 is tested essentially as described above and is found to inhibit the pMAPKAPK2 enzyme production with an IC50 of 7 nM.

Row | Structure (SMILES) | IC50 [µM]
1 | Cc1ccc(-n2nc(C3(C)CC3)cc2NC(=O)Nc2cnc(N3CCN(C(=O)C4CC4)CC3)c3ccccc23)cc1 [Example 1, 1-[1-(4-Cyclopropanecarbonyl-piperazin-1-yl)-isoquinolin-4-yl]-3-[5-(1-methyl-cyclopropyl)-2-p-tolyl-2H-pyrazol-3-yl]-urea] | 0.044
2 | Cc1ccc(-n2nc(C3(C)CC3)cc2NC(=O)Nc2cnc(N3CCN(C(=O)c4c(F)cccc4F)CC3)c3ccccc23)cc1 [Example 3, 1-{1-[4-(2,6-Difluoro-benzoyl)-piperazin-1-yl]-isoquinolin-4-yl}-3-[5-(1-methyl-cyclopropyl)-2-p-tolyl-2H-pyrazol-3-yl]-urea] | 0.025
3 | COC1(c2cc(NC(=O)Nc3cnc(OC4CCN(C(=O)C5(C)CC5)CC4)c4ccccc34)n(-c3ccc(C)cc3)n2)CC1 [Example 9, 1-[5-(1-Methoxy-cyclopropyl)-2-p-tolyl-2H-pyrazol-3-yl]-3-{1-[1-(1-methyl-cyclopropanecarbonyl)-piperidin-4-yloxy]-isoquinolin-4-yl}-urea mesylate] | 0.101
4 | Cc1ccc(-n2nc(C(C)(C)C)cc2NC(=O)Nc2cnc(OC3CCN(C(N)=O)CC3)c3ccccc23)cc1 [Example 23] | 0.125
